Reference: patent US8415469B2, “Compounds and methods for kinase modulation, and indications therefor” (Plexxikon Inc., priority 2005, dated 2013)

Columns and labels:
Format in all cases: biochemical
[1] = molecular target: T1, B-Raf (Homo sapiens, UniProt P15056); assay: AlphaScreen kinase assay, B-Raf; details: read-out: IC50, activity toward kinase B-Raf
T1 construct: purchased Upstate Biotechnology

[2] = molecular target: T2, B-Raf V600E (Homo sapiens, UniProt P15056, V600E); assay: AlphaScreen kinase assay, B-Raf V600E; details: read-out: IC50, activity toward kinase B-Raf V600E
T2 construct: P4254. pFastBacBD-CDC37 BRAF D437-K722-X, V600E; His6 with pFastBac HT leader (TEV site) (N); made in house; host or cells: Sf9 (baculovirus; chaperone CDC37 co-expressed)
T2 sequence (P15056 with tags, fused parts or gaps V600E): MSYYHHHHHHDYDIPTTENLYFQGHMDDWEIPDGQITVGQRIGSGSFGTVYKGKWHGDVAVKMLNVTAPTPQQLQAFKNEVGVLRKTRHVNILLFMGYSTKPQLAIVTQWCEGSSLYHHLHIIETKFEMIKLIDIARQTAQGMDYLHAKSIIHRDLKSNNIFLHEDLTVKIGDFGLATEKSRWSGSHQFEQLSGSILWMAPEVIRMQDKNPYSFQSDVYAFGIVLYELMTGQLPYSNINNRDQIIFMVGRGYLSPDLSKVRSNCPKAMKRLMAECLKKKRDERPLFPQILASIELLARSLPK

[3] = molecular target: T3, c-Raf-1 (Homo sapiens, UniProt P04049); assay: AlphaScreen kinase assay, c-Raf-1; details: read-out: IC50, activity toward kinase c-Raf-1
T3 construct: purchased Upstate Biotechnology
T3 sequence (P04049 whole entry): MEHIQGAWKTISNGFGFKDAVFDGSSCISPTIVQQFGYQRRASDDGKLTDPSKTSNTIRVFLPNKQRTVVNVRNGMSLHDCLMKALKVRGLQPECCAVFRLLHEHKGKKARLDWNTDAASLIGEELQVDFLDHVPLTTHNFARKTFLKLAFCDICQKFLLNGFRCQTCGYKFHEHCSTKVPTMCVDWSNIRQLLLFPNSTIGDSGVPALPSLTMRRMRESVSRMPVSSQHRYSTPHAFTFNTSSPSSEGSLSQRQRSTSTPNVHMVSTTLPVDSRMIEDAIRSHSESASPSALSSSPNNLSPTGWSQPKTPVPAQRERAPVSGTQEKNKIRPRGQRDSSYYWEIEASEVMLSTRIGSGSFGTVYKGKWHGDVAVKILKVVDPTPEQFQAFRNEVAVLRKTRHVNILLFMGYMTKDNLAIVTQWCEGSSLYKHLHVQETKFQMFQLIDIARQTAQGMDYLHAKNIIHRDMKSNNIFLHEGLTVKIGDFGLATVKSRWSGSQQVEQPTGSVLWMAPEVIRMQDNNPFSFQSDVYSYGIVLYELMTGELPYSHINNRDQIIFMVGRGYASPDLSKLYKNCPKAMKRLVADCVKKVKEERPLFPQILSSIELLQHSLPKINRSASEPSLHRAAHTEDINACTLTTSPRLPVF

[4] = molecular target: T4, Fak (Homo sapiens, UniProt Q05397); assay: AlphaScreen kinase assay, Fak; details: read-out: IC50, activity toward kinase Fak
T4 construct: P1358.pFastBacHtb FAK S411-Q686-X; His6 with pFastBacHTb leader (TEV site) (N); made in house; host or cells: Sf9 (baculovirus)
T4 sequence (Q05397 411-686): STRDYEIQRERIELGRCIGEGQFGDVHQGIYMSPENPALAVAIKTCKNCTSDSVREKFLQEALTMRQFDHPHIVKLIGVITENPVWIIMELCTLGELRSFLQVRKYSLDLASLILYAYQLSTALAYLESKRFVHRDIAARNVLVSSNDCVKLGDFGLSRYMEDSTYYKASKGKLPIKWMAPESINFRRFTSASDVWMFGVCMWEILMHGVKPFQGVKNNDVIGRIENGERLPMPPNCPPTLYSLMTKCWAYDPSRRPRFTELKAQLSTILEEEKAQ

[5] = molecular target: T5, FGFR1 (Homo sapiens, UniProt P11362, C488A/C584S); assay: AlphaScreen kinase assay, FGFR1; details: read-out: IC50, activity toward kinase FGFR
T5 construct: P1351.pET N6 BI-PTP FGFR A458-E765-X C488A, C584S; made in house; host or cells: E. coli (PTP1B co-expressed)
T5 sequence (P11362 458-765 C488A/C584S): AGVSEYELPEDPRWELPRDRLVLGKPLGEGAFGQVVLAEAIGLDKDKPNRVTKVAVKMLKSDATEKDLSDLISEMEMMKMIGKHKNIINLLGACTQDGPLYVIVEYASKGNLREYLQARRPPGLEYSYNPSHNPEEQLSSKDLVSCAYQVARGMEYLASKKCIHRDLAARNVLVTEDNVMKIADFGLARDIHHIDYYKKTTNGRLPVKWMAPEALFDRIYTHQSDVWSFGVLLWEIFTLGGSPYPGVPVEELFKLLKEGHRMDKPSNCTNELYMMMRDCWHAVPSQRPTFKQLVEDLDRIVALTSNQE

[6] = molecular target: T6, Fms (Homo sapiens, UniProt P07333); assay: AlphaScreen kinase assay, Fms; details: read-out: IC50, activity toward kinase Fms
T6 construct: purchased Upstate Biotechnology
T6 sequence (P07333 20-972): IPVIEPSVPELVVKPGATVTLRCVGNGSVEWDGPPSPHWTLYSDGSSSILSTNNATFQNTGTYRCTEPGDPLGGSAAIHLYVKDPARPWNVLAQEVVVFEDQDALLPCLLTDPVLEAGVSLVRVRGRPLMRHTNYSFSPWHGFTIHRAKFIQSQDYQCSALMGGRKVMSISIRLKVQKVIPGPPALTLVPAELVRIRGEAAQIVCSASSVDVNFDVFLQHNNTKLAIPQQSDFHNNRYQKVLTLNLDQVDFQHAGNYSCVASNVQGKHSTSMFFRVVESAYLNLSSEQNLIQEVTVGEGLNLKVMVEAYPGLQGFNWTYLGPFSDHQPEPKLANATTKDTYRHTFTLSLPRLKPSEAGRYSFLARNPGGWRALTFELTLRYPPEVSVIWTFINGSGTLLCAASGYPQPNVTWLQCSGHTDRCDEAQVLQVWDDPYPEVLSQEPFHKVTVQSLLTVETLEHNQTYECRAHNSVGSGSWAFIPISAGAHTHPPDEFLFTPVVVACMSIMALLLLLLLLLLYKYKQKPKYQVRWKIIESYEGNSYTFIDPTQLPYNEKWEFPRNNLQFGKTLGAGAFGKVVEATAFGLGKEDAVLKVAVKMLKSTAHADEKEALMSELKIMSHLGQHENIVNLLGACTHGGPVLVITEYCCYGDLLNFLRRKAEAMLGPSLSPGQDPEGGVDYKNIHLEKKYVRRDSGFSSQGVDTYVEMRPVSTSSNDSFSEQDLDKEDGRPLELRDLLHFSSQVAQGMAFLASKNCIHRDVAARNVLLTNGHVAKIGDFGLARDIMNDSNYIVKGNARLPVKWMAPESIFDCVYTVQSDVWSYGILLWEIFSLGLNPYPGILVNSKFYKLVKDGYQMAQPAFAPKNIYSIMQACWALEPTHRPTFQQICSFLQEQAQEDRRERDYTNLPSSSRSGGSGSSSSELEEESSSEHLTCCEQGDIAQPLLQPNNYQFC

[7] = molecular target: T7, Kit (Homo sapiens, UniProt P10721); assay: AlphaScreen kinase assay, Kit; details: read-out: IC50, activity toward kinase Kit
T7 construct: P1332.N6 BI PTP KIT M552-K948-X COD; His6 (N); made in house; host or cells: E. coli (PTP1B co-expressed)
T7 sequence (P10721 with tags, fused parts or gaps): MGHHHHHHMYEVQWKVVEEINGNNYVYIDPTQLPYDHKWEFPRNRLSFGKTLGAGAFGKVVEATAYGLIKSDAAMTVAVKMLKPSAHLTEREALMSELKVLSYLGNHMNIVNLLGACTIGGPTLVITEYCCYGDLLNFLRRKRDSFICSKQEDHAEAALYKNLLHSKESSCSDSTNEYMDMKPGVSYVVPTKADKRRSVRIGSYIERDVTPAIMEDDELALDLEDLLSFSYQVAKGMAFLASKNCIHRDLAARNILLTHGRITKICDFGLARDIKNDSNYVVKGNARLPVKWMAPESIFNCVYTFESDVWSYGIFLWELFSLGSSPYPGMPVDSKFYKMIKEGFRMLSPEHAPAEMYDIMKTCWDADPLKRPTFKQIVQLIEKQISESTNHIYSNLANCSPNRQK

[8] = molecular target: T8, Pyk2 (Homo sapiens, UniProt Q14289); assay: AlphaScreen kinase assay, Pyk2; details: read-out: IC50, activity toward kinase Pyk2
T8 construct: purchased Upstate Biotechnology

[9] = molecular target: T9, Ret (Homo sapiens, UniProt P07949); assay: AlphaScreen kinase assay, Ret; details: read-out: IC50, activity toward kinase Ret
T9 construct: P1378.pET-SF BI-PTP RET H661-R1012 HIS; made in house
T9 sequence (P07949 with tags, fused parts or gaps): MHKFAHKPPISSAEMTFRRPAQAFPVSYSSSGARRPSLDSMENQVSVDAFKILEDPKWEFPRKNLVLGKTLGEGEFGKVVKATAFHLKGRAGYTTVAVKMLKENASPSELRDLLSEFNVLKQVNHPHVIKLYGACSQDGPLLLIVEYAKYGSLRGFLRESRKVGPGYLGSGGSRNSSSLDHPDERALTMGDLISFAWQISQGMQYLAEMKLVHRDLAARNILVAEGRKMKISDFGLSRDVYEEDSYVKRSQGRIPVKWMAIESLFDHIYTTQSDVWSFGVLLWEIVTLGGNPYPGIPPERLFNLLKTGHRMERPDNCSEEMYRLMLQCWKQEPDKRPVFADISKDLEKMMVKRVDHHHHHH

[10] = molecular target: T10, Src (Homo sapiens, UniProt P12931); assay: AlphaScreen kinase assay, Src; details: read-out: IC50, activity toward kinase Src
T10 construct: P1144. pET-N6 BI-PTP SRC V86-L536-X; made in house
T10 sequence (P12931 with tags, fused parts or gaps): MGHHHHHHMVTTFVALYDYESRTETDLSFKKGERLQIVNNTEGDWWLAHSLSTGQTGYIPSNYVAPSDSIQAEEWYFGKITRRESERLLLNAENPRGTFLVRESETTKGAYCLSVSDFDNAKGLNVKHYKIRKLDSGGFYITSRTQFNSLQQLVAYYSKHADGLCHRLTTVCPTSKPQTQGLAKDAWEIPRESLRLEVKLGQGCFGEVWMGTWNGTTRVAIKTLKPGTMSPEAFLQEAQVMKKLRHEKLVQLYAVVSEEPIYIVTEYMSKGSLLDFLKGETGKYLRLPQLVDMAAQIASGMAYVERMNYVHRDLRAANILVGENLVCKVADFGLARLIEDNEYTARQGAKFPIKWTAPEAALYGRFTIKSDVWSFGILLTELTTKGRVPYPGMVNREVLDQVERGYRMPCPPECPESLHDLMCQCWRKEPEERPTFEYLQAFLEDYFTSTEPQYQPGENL

[11] = molecular target: T11, Jnk1 (Homo sapiens, UniProt P45983); assay: AlphaScreen kinase assay, Jnk1; details: read-out: IC50, activity toward kinase Jnk1
T11 construct: purchased Upstate Biotechnology
T11 sequence (P45983 whole entry): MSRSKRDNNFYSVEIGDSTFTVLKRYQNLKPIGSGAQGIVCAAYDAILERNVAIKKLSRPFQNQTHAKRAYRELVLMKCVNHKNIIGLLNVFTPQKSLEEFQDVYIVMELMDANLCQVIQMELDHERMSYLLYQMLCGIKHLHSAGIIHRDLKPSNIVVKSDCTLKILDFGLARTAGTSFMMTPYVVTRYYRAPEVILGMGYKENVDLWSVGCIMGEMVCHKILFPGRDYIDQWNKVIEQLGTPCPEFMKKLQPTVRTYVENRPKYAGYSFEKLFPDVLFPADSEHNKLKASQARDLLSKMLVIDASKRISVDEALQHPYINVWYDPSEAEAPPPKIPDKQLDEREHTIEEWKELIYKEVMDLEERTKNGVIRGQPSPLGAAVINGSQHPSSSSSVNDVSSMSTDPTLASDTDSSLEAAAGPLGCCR

[12] = molecular target: T12, Jnk3 (Homo sapiens, UniProt P53779); assay: AlphaScreen kinase assay, Jnk3; details: read-out: IC50, activity toward kinase Jnk3
T12 construct: purchased Upstate Biotechnology

[13] = molecular target: T13, Flt1 (Homo sapiens, UniProt P17948); assay: AlphaScreen kinase assay, Flt1; details: read-out: IC50, activity toward kinase Flt1
T13 construct: P1826.pETN6 BI-PTP FLT1 M799-D1165-X WT; His6 (N); made in house; host or cells: E. coli (PTP1B co-expressed)
T13 sequence (P17948 with tags, fused parts or gaps): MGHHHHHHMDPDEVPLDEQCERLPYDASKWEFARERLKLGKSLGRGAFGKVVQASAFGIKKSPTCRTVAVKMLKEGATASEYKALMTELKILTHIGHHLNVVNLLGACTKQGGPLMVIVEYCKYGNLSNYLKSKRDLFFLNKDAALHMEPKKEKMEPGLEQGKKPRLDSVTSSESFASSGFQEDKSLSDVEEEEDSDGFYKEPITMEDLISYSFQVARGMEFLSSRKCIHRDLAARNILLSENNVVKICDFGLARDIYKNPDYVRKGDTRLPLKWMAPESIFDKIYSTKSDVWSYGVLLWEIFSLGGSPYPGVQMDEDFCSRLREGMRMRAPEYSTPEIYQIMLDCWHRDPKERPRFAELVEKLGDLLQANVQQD

Measured: IC50

T1 sequence (P15056 whole entry): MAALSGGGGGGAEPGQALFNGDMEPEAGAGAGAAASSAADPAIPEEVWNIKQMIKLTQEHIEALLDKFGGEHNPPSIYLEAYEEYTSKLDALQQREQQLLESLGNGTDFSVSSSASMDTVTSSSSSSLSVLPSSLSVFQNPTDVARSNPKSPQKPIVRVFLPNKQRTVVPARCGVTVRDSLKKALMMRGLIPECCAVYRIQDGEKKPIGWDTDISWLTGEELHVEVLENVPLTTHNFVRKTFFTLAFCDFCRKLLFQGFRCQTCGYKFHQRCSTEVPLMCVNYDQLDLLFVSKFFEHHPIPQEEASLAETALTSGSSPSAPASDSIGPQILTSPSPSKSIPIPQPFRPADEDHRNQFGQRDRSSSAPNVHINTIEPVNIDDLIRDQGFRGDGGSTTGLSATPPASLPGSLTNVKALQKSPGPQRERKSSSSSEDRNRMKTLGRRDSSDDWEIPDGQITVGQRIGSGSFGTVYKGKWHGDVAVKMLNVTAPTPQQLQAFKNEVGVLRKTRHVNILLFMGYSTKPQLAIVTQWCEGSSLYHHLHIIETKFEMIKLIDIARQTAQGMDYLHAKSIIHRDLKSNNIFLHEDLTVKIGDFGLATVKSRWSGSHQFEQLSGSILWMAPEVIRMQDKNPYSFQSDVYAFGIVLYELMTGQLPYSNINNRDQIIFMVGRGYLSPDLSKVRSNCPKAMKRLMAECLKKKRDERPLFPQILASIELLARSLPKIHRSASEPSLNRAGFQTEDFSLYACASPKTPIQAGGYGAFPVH

O=C(Nc1ccc(F)c(Cc2c[nH]c3ncc(-c4cccnc4)cc23)c1F)OCc1ccccc1 [Compound P-0396, [2,4-Difluoro-3-(5-pyridin-3-yl-1H-pyrrolo[2,3-b]pyridin-3-ylmethyl)-phenyl]-carbamic acid benzyl ester]
not listed: [11] | [12] | [13]
≤ 10 µM: all other assays above

CCCS(=O)(=O)Nc1ccc(F)c(Cc2c[nH]c3ncc(Nc4ccccc4)cc23)c1F [Compound P-0818, Propane-1-sulfonic acid [2,4-difluoro-3-(5-phenylamino-1H-pyrrolo[2,3-b]pyridin-3-ylmethyl)-phenyl]-amide]
not listed: [9] | [11] | [12] | [13]
≤ 10 µM: all other assays above

CN(C)S(=O)(=O)Nc1ccc(F)c(C(=O)c2c[nH]c3ncc(-c4cccnc4)cc23)c1F [Compound P-0837, Dimethylamine-1-sulfonic acid [3-(5-pyridin-3-yl-1H-pyrrolo[2,3-b]pyridine-3-carbonyl)-2,4-difluoro-phenyl]-amide]
not listed: [9] | [11] | [12] | [13]
≤ 10 µM: all other assays above

CCCS(=O)(=O)Nc1ccc(F)c(C(=O)c2c[nH]c3ncc(Nc4ccccc4)cc23)c1F [Compound P-0848, propane-1-sulfonic acid [2,4-difluoro-3-(5-phenylamino-1H-pyrrolo[2,3-b]pyridine-3-carbonyl)-phenyl]-amide]
not listed: [4] | [9] | [12] | [13]
≤ 10 µM: all other assays above

CC(C)S(=O)(=O)Nc1ccc(F)c(Cc2c[nH]c3ncc(Br)cc23)c1F [Compound P-0867, Propane-2-sulfonic acid [3-(5-bromo-1H-pyrrolo[2,3-b]pyridin-3-ylmethyl)-2,4-difluoro-phenyl]-amide]
not listed: [9] | [10] | [11] | [12] | [13]
≤ 10 µM: all other assays above

CN(C)S(=O)(=O)Nc1ccc(F)c(C(=O)c2c[nH]c3ncc(Br)cc23)c1F [Compound P-0898, Dimethylamine-1-sulfonic acid [3-(5-bromo-1H-pyrrolo[2,3-b]pyridine-3-carbonyl)-2,4-difluoro-phenyl]-amide]
not listed: [4] | [9] | [11] | [12] | [13]
≤ 10 µM: all other assays above

CCCS(=O)(=O)Nc1ccc(F)c(Cc2c[nH]c3ncc(Br)cc23)c1F [Compound P-0910, Propane-1-sulfonic acid [3-(5-bromo-1H-pyrrolo[2,3-b]pyridin-3-ylmethyl)-2,4-difluoro-phenyl]-amide]
not listed: [6] | [9] | [11] | [12] | [13]
≤ 10 µM: all other assays above

CCCS(=O)(=O)Nc1ccc(F)c(Cc2c[nH]c3ncc(-c4ccccc4)cc23)c1F [Compound P-0911, Propane-1-sulfonic acid [2,4-difluoro-3-(5-phenyl-1H-pyrrolo[2,3-b]pyridin-3-ylmethyl)-phenyl]-amide]
not listed: [9] | [10] | [11] | [12] | [13]
≤ 10 µM: all other assays above

CCCC(=O)Nc1ccc(F)c(Cc2c[nH]c3ncc(-c4cccc(C(N)=O)c4)cc23)c1F [Compound P-1281]
not listed: [3] | [9] | [12] | [13]
≤ 10 µM: all other assays above

CCCC(=O)Nc1ccc(F)c(Cc2c[nH]c3ncc(Br)cc23)c1F [Compound P-1282]
≤ 10 µM: [1] | [2] | [4] | [5] | [6] | [8]

CCCS(=O)(=O)Nc1ccc(F)c(Cc2c[nH]c3ncc(OC)cc23)c1F [Compound P-1316]
not listed: [1] | [9] | [11] | [12] | [13]
≤ 10 µM: all other assays above

Nc1cccc(-c2cnc3[nH]cc(Cc4ccccc4F)c3c2)c1 [Compound P-1349]
not listed: [3] | [6] | [9] | [13]
≤ 10 µM: all other assays above

CCCC(=O)Nc1ccc(F)c(C(=O)c2c[nH]c3ncc(-c4cccc(C(N)=O)c4)cc23)c1F [Compound P-1365]
not listed: [9] | [10] | [12]
≤ 10 µM: all other assays above
